Consider 13 molecules from patent US11963975B2, “Therapeutic targets for facioscapulohumeral muscular dystrophy” (University of Massachusetts, priority 2016, dated 2024).

What all share (format): cell-based, human
In data set [1] the test system is skeletal myocytes from an FSHD1 patient (05Abic). Description: shRNA knockdown screen in terminally differentiated FSHD myocytes, gene expression by qRT-PCR. The following applies: harvested 4 days after second infection, Mock = 1. The procedure:
A screen to identify genes involved in DUX4 expression (e.g., when the expression of these genes is reduced in FSHD muscle cells, DUX4 expression also decreases) was performed. Briefly, primary differentiated myocytes derived from subjects having FSHD were treated with shRNA targeting candidate genes and the expression level of pathogenic DUX4-fl mRNA was quantified. The expression levels of other myogenic regulators (e.g., Myogenin, MyoD, MyHD) and other targets (e.g., FRG1, UTRN, and 18S) were also quantified to assess indirect effects of DUX4 knockdown. A sample screening protocol is shown below:
• 1. Expand low passage primary FSHD myoblasts. • 2. Plate into 6-well plates. • 3. Allow cells to reach confluence and differentiate (approximately 48 hours). • 4. Infect cells with lentiviral shRNA construct and incubate for 24 hours. • 5. Re-infect cells with lentiviral shRNA construct. • 6. Harvest cells 4 days after second infection. • 7. Extract RNA from cells and assay for expression level of DUX4-fl and other genes of interest.
(§1) Myogenic cultures derived from biceps muscles of unrelated FSHD1 patients (05Abic, 17Abic, and 18Abic) were grown in Ham's F-10 medium supplemented with 20% FBS (Hyclone), 0.5% chick embryo extract, 1% antibiotics & antimycotics, and 1.2 mM CaCl2. 293T packaging cells were grown in DMEM+10% FBS+0.1% […]. For shRNA knockdown experiments, 293T cells were transfected with lentiviral packaging plasmid (pCMV-dR8.91), envelope plasmid (VSV-G), and SIGMA MISSION shRNA expression plasmids. Lentiviral supernatants were harvested, aliquoted, and frozen at −80° C. FSHD1 skeletal myoblasts were seeded in collagen-coated 6-well plates (for gene expression analysis) or 10-cm plates (for ChIP) and grown to confluence, then allowed to self-differentiate in growth medium for ˜48 h. Cells were subjected to two rounds of infection. Briefly, lentiviral supernatants+8 μg/ml polybrene were added to cultures and the plates were incubated for 15 min at 37° C., then wrapped well with parafilm before centrifuging for 30 min at 1100 g (32° C.). Following centrifugation, the viral supernatants were replaced with growth medium. Cells were maintained in growth medium and harvested 4 d after the last round of infection. For dCas9-KRAB infections, 293T cells were transfected with lentiviral packaging plasmid (pCMV-dR8.91), envelope plasmid (VSV-G), and either dCas9-KRAB expression plasmid (#50919) or sgRNA expression plasmid using the TransIT-LT1 transfection reagent. Lentiviral supernatants were harvested at […] from 72-108 h post-transfection. FSHD1 skeletal myoblasts were seeded in collagen-coated 6-well plates and grown to ˜80% confluency, then subjected to four serial infections over two days. Cells were allowed to recover for ˜8 h in growth medium prior to the next round of infection. Following the last infection, these self-differentiated cultures were maintained in growth medium for 72 h prior to harvesting.
Total RNAs were extracted using TRIzol (Invitrogen) and purified using the RNeasy Mini kit (Qiagen) after on-column DNase I digestion. Total RNA (2 μg) was used for cDNA synthesis using Superscript III Reverse Transcriptase (Invitrogen), and 200 ng of cDNA were used for qPCR analysis.
The D4Z4 macrosatellite array that encodes DUX4 is normally under strong epigenetic repression in adult somatic cells. […] Thirty-six candidate activators of DUX4 fl were investigated as potential drug targets (Table 3). These candidates include transcriptional regulators, chromatin remodelers, and histone modifying enzymes. For the initial screen, skeletal myocytes from an FSHD1 patient (05Abic) which express consistent and relatively high levels of DUX4 fl when terminally differentiated were used. Using lentivirus-encoded shRNAs, each candidate was knocked down in terminally differentiated cultures, then cells were harvested four days later and assessed for expression of DUX4 fl and other genes.

For data set [2], the system named is FSHD myocytes (05Abic, 18Abic, and 17Abic). In words: shRNA knockdown across FSHD cohorts, DUX4-fl by qRT-PCR. As to conditions: FIG. 11F.
Text: FIGS. 11A-11F show shRNA knockdown of epigenetic regulators reduces expression of DUX4-fl in FSHD myocytes. Differentiated FSHD myocytes were infected in two serial rounds with shRNAs to ASH1L (FIG. 11A), BAZ1A (FIG. 11B), BRD2 (FIG. 11C), KDM4C (FIG. 11D), SMARCA5 (FIG. 11E), or a scrambled control. Four days later, cells were harvested for analysis of the full-length DUX4 isoform (DUX4-fl), Myogenin (Myog), MyoD, Myosin heavy chain 1 (MyHC), FRG1, Utrophin (Utr), and 18S gene expression by qRT-PCR. […] In all panels, relative mRNA expression for mock or control-infected cells is set to 1. Data are plotted as the mean+SD value of technical replicates.
as §1
Total RNAs were extracted using TRIzol (Invitrogen) and purified using the RNeasy Mini kit (Qiagen) after on-column DNase I digestion. […]

For data set [3], the system named is primary myoblasts isolated from FSHD1-affected and FSHD-asymptomatic patients. In words: small molecule treatment of primary myoblasts, DUX4 expression. As to conditions: alone, or in combination; FIG. 15. From the text: Trichostatin A (TSA) is a histone deacetylase inhibitor, 5-aza-2′-deoxycytidine (5′ADC) is a DNA methylation inhibitor and chaetocin (CH) is a histone methyltransferase inhibitor.

Values joined by “and” are separate entries in the source; they are usually repeats but may differ in a detail not shown here. Equal values may be shown once.

On to “PJ75: shRNA targeting KDM4C; SEQ ID NO: 3 (CCGGGCCCAAGTCTTGGTATGCTATCTCGAGATAGCATACCAAGACTTGGGCTTTTT)”, for which, in data set [1], the “18S relative gene expression” value worked out at 0.9781, the “D4-fl relative gene expression” value was determined as 0.1812, the “FRG1 relative gene expression” value is on record as 0.7766 and the “MyHC relative gene expression” value was 0.9826. Moreover, in data set [1], the “MyoD relative gene expression” value was 1.048, the “Myog relative gene expression” value is given as 1.318 and the “Utr relative gene expression” value is reported as 1.018.
Consider “PJ11: shRNA targeting BRD2; SEQ ID NO: 10 (guide CCGGCCCTTTGCTGTGACACTTCTTCTCGAGAAGAAGTGTCACAGCAAAGGGTTTTT)”, for which, in data set [1], the “18S relative gene expression” value amounted to 1.112, the “D4-fl relative gene expression” value is reported as 0.124, the “FRG1 relative gene expression” value is 1.25 and the “MyHC relative gene expression” value came to 0.7342. Besides, in data set [1], the “MyoD relative gene expression” value is recorded as 0.9277, the “Myog relative gene expression” value was determined as 1.026 and the “Utr relative gene expression” value is 0.6067. Further, the “DUX4-fl expression (in words)” value in data set [2] is on record as “reduce DUX4-fl expression”.
For “PJ3: shRNA targeting ASH1L; SEQ ID NO: 6 (guide CCGGCGTACTTTGTTTATCCCAGAACTCGAGTTCTGGGATAAACAAAGTACGTTTTT)”, in data set [1], the “18S relative gene expression” value is 1.185, the “D4-fl relative gene expression” value was found to be 0.2434, the “FRG1 relative gene expression” value was 1.141 and the “MyHC relative gene expression” value stood at 1.341. In data set [1], the “MyoD relative gene expression” value was found to be 0.9895, the “Myog relative gene expression” value turned out to be 0.7218 and the “Utr relative gene expression” value stood at 1.128.
Consider “PJ196: shRNA targeting SMARCA5; SEQ ID NO: 8 (guide CCGGCCGGGCAAATAGATTCGAGTACTCGAGTACTCGAATCTATTTGCCCGGTTTTT)”, for which, in data set [1], the “18S relative gene expression” value was 0.9807 and 1.048; the “D4-fl relative gene expression” value was 0.1085 and 0.1967; the “FRG1 relative gene expression” value was 0.8974 and 0.9209; the “MyHC relative gene expression” value is 0.469 and 0.5926. In data set [1], the “MyoD relative gene expression” value is 0.722 and 0.9103; the “Myog relative gene expression” value is 0.9247 and 0.9293; the “Utr relative gene expression” value is 0.8261 and 1.231. In addition, the “DUX4-fl expression (in words)” value in data set [2] is on record as “reduce DUX4-fl expression”.
For `CC(/C=C/C(=O)NO)=C\[C@@H](C)C(=O)c1ccc(N(C)C)cc1` [Trichostatin A], the “DUX4 expression (in words)” value in data set [3] is reported as “affect DUX4 expression”.
As for “PJ1: shRNA targeting ASH1L; SEQ ID NO: 4 (guide CCGGCGACATAAACTTGACATCTTTCTCGAGAAAGATGTCAAGTTTATGTCGTTTTT)”, in data set [1], the “18S relative gene expression” value was determined as 1.372, the “D4-fl relative gene expression” value is 0.3399, the “FRG1 relative gene expression” value stood at 1.051 and the “MyHC relative gene expression” value is reported as 1.066. Further, in data set [1], the “MyoD relative gene expression” value is recorded as 0.7238, the “Myog relative gene expression” value worked out at 1.795 and the “Utr relative gene expression” value came out at 0.6994. Also, the “DUX4-fl expression (in words)” value in data set [2] was “reduce DUX4-fl expression”.
As to “PJ2: shRNA targeting ASH1L; SEQ ID NO: 5 (guide CCGGCCTGCCAAATACCATAAGAAACTCGAGTTTCTTATGGTATTTGGCAGGTTTTT)”, in data set [1], the “18S relative gene expression” value amounted to 1.311, the “D4-fl relative gene expression” value stood at 0.1371, the “FRG1 relative gene expression” value came to 1.172 and the “MyHC relative gene expression” value is given as 0.7221. In addition, in data set [1], the “MyoD relative gene expression” value is on record as 0.8503, the “Myog relative gene expression” value was 0.8845 and the “Utr relative gene expression” value is reported as 0.815.
Turning to `Nc1ncn([C@H]2C[C@H](O)[C@@H](CO)O2)c(=O)n1` [5-aza-2′-deoxycytidine], the “DUX4 expression (in words)” value in data set [3] is recorded as “affect DUX4 expression”.
Take “PJ195: shRNA targeting SMARCA5; SEQ ID NO: 7 (guide CCGGGTTCTTTAATTTACGGGTCTTCTCGAGAAGACCCGTAAATTAAAGAACTTTTT)”: in data set [1], the “18S relative gene expression” value was found to be 0.9905, the “D4-fl relative gene expression” value came to 0.168, the “FRG1 relative gene expression” value is 0.9865 and the “MyHC relative gene expression” value came out at 0.7803. Also, in data set [1], the “MyoD relative gene expression” value is on record as 0.8981, the “Myog relative gene expression” value stood at 0.8003 and the “Utr relative gene expression” value stood at 1.024.
For the molecule “PJ73: shRNA targeting KDM4C; SEQ ID NO: 1 (guide CCGGGCCTCTGACATGCGATTTGAACTCGAGTTCAAATCGCATGTCAGAGGCTTTTT)”, in data set [1], the “18S relative gene expression” value stood at 1.253, the “D4-fl relative gene expression” value came out at 0.1101, the “FRG1 relative gene expression” value is reported as 1.043 and the “MyHC relative gene expression” value was 0.7968. Besides, in data set [1], the “MyoD relative gene expression” value is listed as 0.9045, the “Myog relative gene expression” value amounted to 1.338 and the “Utr relative gene expression” value was found to be 0.6393.
With “PJ152: shRNA targeting BAZ1A; SEQ ID NO: 9 (guide CCGGGCGATGAAGAAGAAGGTCAAACTCGAGTTTGACCTTCTTCTTCATCGCTTTTTG)”, in data set [1], the “18S relative gene expression” value was 1.312, the “D4-fl relative gene expression” value was determined as 0.1892, the “FRG1 relative gene expression” value was 0.9047 and the “MyHC relative gene expression” value was 0.8503. In addition, in data set [1], the “MyoD relative gene expression” value amounted to 0.991, the “Myog relative gene expression” value turned out to be 1.318 and the “Utr relative gene expression” value worked out at 0.954.
In the case of “PJ12: shRNA targeting BRD2; SEQ ID NO: 11 (guide CCGGGCCCTCTTTACGTGATTCAAACTCGAGTTTGAATCACGTAAAGAGGGCTTTTT)”, in data set [1], the “18S relative gene expression” value is listed as 1.099, the “D4-fl relative gene expression” value is 0.1127, the “FRG1 relative gene expression” value was determined as 1.178 and the “MyHC relative gene expression” value is reported as 0.7927. Further, in data set [1], the “MyoD relative gene expression” value is listed as 0.904, the “Myog relative gene expression” value came out at 1.088 and the “Utr relative gene expression” value is given as 0.6755.
Consider “PJ74: shRNA targeting KDM4C; SEQ ID NO: 2 (guide CCGGGCAGAGAGTAATGGTGTGTTACTCGAGTAACACACCATTACTCTCTGCTTTTT)”, for which, in data set [1], the “18S relative gene expression” value is recorded as 1.129, the “D4-fl relative gene expression” value turned out to be 0.08801, the “FRG1 relative gene expression” value was 1.211 and the “MyHC relative gene expression” value stood at 0.7642. Also, in data set [1], the “MyoD relative gene expression” value was 0.7621, the “Myog relative gene expression” value was found to be 1.81 and the “Utr relative gene expression” value is 0.7121. For the same molecule, the “DUX4-fl expression (in words)” value in data set [2] is “reduce DUX4-fl expression”.
